In patent US20240083900A1, “PYRAZOLO[1,5-A]PYRAZINE DERIVATIVES AS BTK INHIBITORS” (BIOGEN MA INC., priority 2020, published 2024):
pIC50: −log10 of the molar value. Where two headings read alike, the source gives them in different places.

Columns and labels:
BTK = BTK (Homo sapiens (Human), UniProt Q06187); assay: In Vitro BTK Kinase Assay: Btk-PolyGAT-LS Assay; assay type: biochemical; conditions: BTK enzyme 0.25 nM, ATP 10 μM, polyGAT 100 nM, 30 minutes incubation, TRF readout; for pIC50: read-out: IC50
Chain of BTK (Q06187 whole entry): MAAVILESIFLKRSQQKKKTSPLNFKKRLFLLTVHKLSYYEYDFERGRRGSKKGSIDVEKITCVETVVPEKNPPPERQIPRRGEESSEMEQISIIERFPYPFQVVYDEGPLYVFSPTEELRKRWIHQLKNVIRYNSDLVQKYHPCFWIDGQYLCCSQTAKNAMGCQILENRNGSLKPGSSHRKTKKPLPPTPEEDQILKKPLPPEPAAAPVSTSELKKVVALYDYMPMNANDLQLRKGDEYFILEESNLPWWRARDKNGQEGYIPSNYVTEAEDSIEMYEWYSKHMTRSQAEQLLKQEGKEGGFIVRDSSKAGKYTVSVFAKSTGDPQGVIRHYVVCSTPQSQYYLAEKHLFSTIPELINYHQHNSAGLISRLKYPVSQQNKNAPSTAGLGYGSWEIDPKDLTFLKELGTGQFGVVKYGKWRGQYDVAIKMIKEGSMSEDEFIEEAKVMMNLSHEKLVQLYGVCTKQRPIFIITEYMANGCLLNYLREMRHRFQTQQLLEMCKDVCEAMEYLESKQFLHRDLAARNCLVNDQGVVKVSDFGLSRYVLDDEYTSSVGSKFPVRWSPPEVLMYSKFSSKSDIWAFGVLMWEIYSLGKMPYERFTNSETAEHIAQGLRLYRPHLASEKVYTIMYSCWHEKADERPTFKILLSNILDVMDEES
Procedure, shortened: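 Human BTK activity was measured with final 10 μM ATP and 100 nM polyGAT substrate in pH 7.5 Tris buffer with 10 mM MgCl2, DTT, Triton X-100 and casein.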

[1] = tested on: CD69 expression on CD19+ B cells in human whole blood stimulated with anti-human IgD; assay: In Vitro whole blood CD69 Assay; assay type: cell-based; conditions: human heparinized whole blood, anti-human IgD stimulation overnight, percentage of CD19+ B cells expressing CD69, flow cytometry
[2] = Homo sapiens, B-cell, read-out: IC50

| SMILES | pIC50 (BTK) | pIC50 [1, 2] | pIC50 ([1]; Homo sapiens, B-cell) | IC50 (BTK; IC50 (nM)) [nM] | pIC50 [1] |
| --- | --- | --- | --- | --- | --- |
| CC#CC(=O)N1CC(C)(C)OC(C)(COc2nc(-c3cnn(C)c3)cn3nccc23)C1 (single isomer, unassigned) [Example 121, 1-(2,2,6-trimethyl-6-(((6-(1-methyl-1H-pyrazol-4-yl)pyrazolo[1,5-a]pyrazin-4-yl)oxy)methyl)morpholino)but-2-yn-1-one] | 8.00 to 9.00 | > 6.00 |  |  |  |
| C=CC(=O)N(C)[C@H]1C[C@@](C)(Oc2nc(-c3cnn(C)c3)cn3nccc23)C1(C)C (single isomer, unassigned) [Example 140] | > 9.00 |  | > 6.00 |  |  |
| C=CC(=O)N(C)[C@H]1C[C@@](C)(Oc2nc(-c3cnn(C)c3)cn3nccc23)C1(C)C (single isomer, unassigned) [Example 141] |  |  |  | 1 to 10 | 5.00 to 6.00 |
| C[C@@H]1O[C@H]1C(=O)N[C@H]1CC[C@@H](Oc2nc(-c3cnn(C)c3)cn3nccc23)C1 (single isomer, unassigned) [Example 148] | 8.00 to 9.00 | > 6.00 |  |  |  |
| C=CC(=O)N1CCC[C@@H](Nc2nc(-c3cnn(C)c3)cn3nccc23)CC1 (single isomer, unassigned) [Example 160] | > 9.00 | 5.00 to 6.00 |  |  |  |
| C[C@H]1O[C@@H]1C(=O)N1CC[C@@H]2[C@H]1C[C@]2(C)Oc1nc(-c2cnn(C)c2)cn2nccc12 (single isomer, unassigned) [Example 193] | 8.00 to 9.00 | 5.00 to 6.00 |  |  |  |
| C=CC(=O)N1CC[C@@]2(CC[C@@H](Oc3nc(-c4cnn(C)c4)cn4nccc34)C2)C1 (single isomer, unassigned) [Example 207] | 8.00 to 9.00 | 5.00 to 6.00 |  |  |  |
| C#CC(=O)N1CCC(Oc2nc(-c3cnn(C)c3)cn3nccc23)CC1 [Example 1, 1-[4-[6-(1-methylpyrazol-4-yl)pyrazolo[1,5-a]pyrazin-4-yl]oxy-1-piperidyl]prop-2-yn-1-one] | 8.00 to 9.00 | < 5.00 |  |  |  |
| C=CS(=O)(=O)N1CCC(Oc2nc(-c3cnn(C)c3)cn3nccc23)CC1 [Example 3, 6-(1-methyl-1H-pyrazol-4-yl)-4-((1-(vinylsulfonyl)piperidin-4-yl)oxy)pyrazolo[1,5-a]pyrazine] | > 9.00 | < 5.00 |  |  |  |
| C=CS(=O)(=O)N1CCC[C@@H](Oc2nc(-c3cnn(C)c3)cn3nccc23)C1 [Example 5, (R)-6-(1-methyl-1H-pyrazol-4-yl)-4-((1-(vinylsulfonyl)piperidin-3-yl)oxy)pyrazolo[1,5-a]pyrazine] | > 9.00 | < 5.00 |  |  |  |
| C=CS(=O)(=O)N1CCC[C@H](Oc2nc(-c3cnn(C)c3)cn3nccc23)C1 [Example 6, (S)-6-(1-methyl-1H-pyrazol-4-yl)-4-((1-(vinylsulfonyl)piperidin-3-yl)oxy)pyrazolo[1,5-a]pyrazine] | 6.00 to 8.00 | < 5.00 |  |  |  |
| C#CC(=O)N1CCC[C@@H](Oc2nc(-c3cnn(C)c3)cn3nccc23)C1 [Example 7, (R)-1-(3-((6-(1-methyl-1H-pyrazol-4-yl)pyrazolo[1,5-a]pyrazin-4-yl)oxy)piperidin-1-yl)prop-2-yn-1-one] | > 9.00 | 5.00 to 6.00 |  |  |  |
| C=CC(=O)N1CC(Oc2nc(-c3cnn(C)c3)cn3nccc23)C1 [Example 9, 1-(3-((6-(1-methyl-1H-pyrazol-4-yl)pyrazolo[1,5-a]pyrazin-4-yl)oxy)azetidin-1-yl)prop-2-en-1-one] | 6.00 to 8.00 | < 5.00 |  |  |  |
| C/C=C\S(=O)(=O)N1CC(Oc2nc(-c3cnn(C)c3)cn3nccc23)C1 [Example 10, (Z)-6-(1-methyl-1H-pyrazol-4-yl)-4-((1-(prop-1-en-1-ylsulfonyl)azetidin-3-yl)oxy)pyrazolo[1,5-a]pyrazine] | 6.00 to 8.00 | < 5.00 |  |  |  |
| C=CS(=O)(=O)N1CC[C@@H](Oc2nc(-c3cnn(C)c3)cn3nccc23)C1 [Example 12, (R)-6-(1-methyl-1H-pyrazol-4-yl)-4-((1-(vinylsulfonyl)pyrrolidin-3-yl)oxy)pyrazolo[1,5-a]pyrazine] | 8.00 to 9.00 | < 5.00 |  |  |  |
| C#CC(=O)N1CC[C@@H](Oc2nc(-c3cnn(C)c3)cn3nccc23)C1 [Example 13, (R)-1-(3-((6-(1-methyl-1H-pyrazol-4-yl)pyrazolo[1,5-a]pyrazin-4-yl)oxy)pyrrolidin-1-yl)prop-2-yn-1-one] | > 9.00 | > 6.00 |  |  |  |
| C=CC(=O)N1CCC[C@H](COc2nc(-c3cnn(C)c3)cn3nccc23)C1 [Example 14, (S)-1-(3-(((6-(1-methyl-1H-pyrazol-4-yl)pyrazolo[1,5-a]pyrazin-4-yl)oxy)methyl)piperidin-1-yl)prop-2-en-1-one] | 8.00 to 9.00 | < 5.00 |  |  |  |

| SMILES | pIC50 (BTK) | pIC50 [1, 2] | pIC50 ([1]; Homo sapiens, B-cell) | IC50 (BTK; IC50 (nM)) [nM] | pIC50 [1] |
| --- | --- | --- | --- | --- | --- |
| C=CS(=O)(=O)N1CCC[C@H](COc2nc(-c3cnn(C)c3)cn3nccc23)C1 [Example 15, (S)-6-(1-methyl-1H-pyrazol-4-yl)-4-((1-(vinylsulfonyl)piperidin-3-yl)methoxy)pyrazolo[1,5-a]pyrazine] | 8.00 to 9.00 | 5.00 to 6.00 |  |  |  |
| C#CC(=O)N1CCC[C@H](COc2nc(-c3cnn(C)c3)cn3nccc23)C1 [Example 16, (S)-1-(3-(((6-(1-methyl-1H-pyrazol-4-yl)pyrazolo[1,5-a]pyrazin-4-yl)oxy)methyl)piperidin-1-yl)prop-2-yn-1-one] | > 9.00 | > 6.00 |  |  |  |
| C=CS(=O)(=O)N1CCC(CNc2nc(-c3cnn(C)c3)cn3nccc23)CC1 [Example 19, 6-(1-methyl-1H-pyrazol-4-yl)-N-((1-(vinylsulfonyl)piperidin-4-yl)methyl)pyrazolo[1,5-a]pyrazin-4-amine] | > 9.00 | > 6.00 |  |  |  |
| C=CC(=O)NC1CCCN(c2nc(-c3cnn(C)c3)cn3nccc23)C1 (centres unmarked) [Example 20, N-[1-[6-(1-methylpyrazol-4-yl)pyrazolo[1,5-a]pyrazin-4-yl]-3-piperidyl]prop-2-enamide] | 6.00 to 8.00 | < 5.00 |  |  |  |
| C#CC(=O)NC1CCCN(c2nc(-c3cnn(C)c3)cn3nccc23)C1 (centres unmarked) [Example 21, N-[1-[6-(1-methylpyrazol-4-yl)pyrazolo[1,5-a]pyrazin-4-yl]-3-piperidyl]prop-2-ynamide] | 8.00 to 9.00 | 5.00 to 6.00 |  |  |  |
| Cn1cc(-c2cn3nccc3c(N3CCCC(NC(=O)/C=C/CCl)C3)n2)cn1 (centres unmarked) [Example 22, 4-chloro-N-[1-[6-(1-methylpyrazol-4-yl)pyrazolo[1,5-a]pyrazin-4-yl]-3-piperidyl]but-2-enamide] | 8.00 to 9.00 | 5.00 to 6.00 |  |  |  |
| C#CC(=O)N(C)C1CCCN(c2nc(-c3cnn(C)c3)cc3nccn23)C1 (centres unmarked) [Example 23, N-methyl-N-[1-[7-(1-methylpyrazol-4-yl)imidazo[1,2-c]pyrimidin-5-yl]-3-piperidyl]prop-2-ynamide] | 6.00 to 8.00 | < 5.00 |  |  |  |
| C#CC(=O)N(C)C1CCCN(c2nc(-c3cnn(C)c3)cn3nccc23)C1 (centres unmarked) [Example 24, N-methyl-N-[1-[6-(1-methylpyrazol-4-yl)pyrazolo[1,5-a]pyrazin-4-yl]-3-piperidyl]prop-2-ynamide] | 6.00 to 8.00 | < 5.00 |  |  |  |
| C#CC(=O)NCC1CCCN(c2nc(-c3cnn(C)c3)cn3nccc23)C1 (centres unmarked) [Example 25, N-((1-(6-(1-methyl-1H-pyrazol-4-yl)pyrazolo[1,5-a]pyrazin-4-yl)piperidin-3-yl)methyl)propiolamide] | 8.00 to 9.00 | < 5.00 |  |  |  |
| C=CC(=O)NCC1CCCCN1c1nc(-c2cnn(C)c2)cn2nccc12 (centres unmarked) [Example 27, N-[[1-[6-(1-methylpyrazol-4-yl)pyrazolo[1,5-a]pyrazin-4-yl]-2-piperidyl]methyl]prop-2-enamide] | 6.00 to 8.00 | 5.00 to 6.00 |  |  |  |
| C=CS(=O)(=O)N1CCC[C@@H](Oc2nc(-c3cnn(C)c3)cn3nccc23)CC1 [Example 28, (R)-6-(1-methyl-1H-pyrazol-4-yl)-4-((1-(vinylsulfonyl)azepan-4-yl)oxy)pyrazolo[1,5-a]pyrazine] | > 9.00 | > 6.00 |  |  |  |
| C#CC(=O)N1CCC[C@@H](Oc2nc(-c3cnn(C)c3)cn3nccc23)CC1 [Example 30, (R)-1-(4-((6-(1-methyl-1H-pyrazol-4-yl)pyrazolo[1,5-a]pyrazin-4-yl)oxy)azepan-1-yl)prop-2-yn-1-one] | > 9.00 | > 6.00 |  |  |  |
| C#CC(=O)N1CCC[C@H](Oc2nc(-c3cnn(C)c3)cn3nccc23)CC1 [Example 31, (S)-1-(4-((6-(1-methyl-1H-pyrazol-4-yl)pyrazolo[1,5-a]pyrazin-4-yl)oxy)azepan-1-yl)prop-2-yn-1-one] | > 9.00 | 5.00 to 6.00 |  |  |  |
| C=CS(=O)(=O)N1CCC[C@H](Oc2nc(-c3cnn(C)c3)cn3nccc23)CC1 [Example 33, (S)-6-(1-methyl-1H-pyrazol-4-yl)-4-((1-(vinylsulfonyl)azepan-4-yl)oxy)pyrazolo[1,5-a]pyrazine] | 8.00 to 9.00 | 5.00 to 6.00 |  |  |  |
| C#CC(=O)N1CC[C@@H](Oc2nc(-c3cnn(C)c3)cc3nccn23)C1 [Example 39, (R)-1-(3-((7-(1-methyl-1H-pyrazol-4-yl)imidazo[1,2-c]pyrimidin-5-yl)oxy)pyrrolidin-1-yl)prop-2-yn-1-one] | 6.00 to 8.00 | 5.00 to 6.00 |  |  |  |
| C=CC(=O)Nc1cccc(Oc2nc(-c3cnn(C)c3)cc3nccn23)c1 [Example 43] | 8.00 to 9.00 | > 6.00 |  |  |  |
| C=CC(=O)N1CCOC[C@@H](Oc2nc(-c3cnn(C)c3)cn3nccc23)C1 [Example 54, (S)-1-(6-((6-(1-methyl-1H-pyrazol-4-yl)pyrazolo[1,5-a]pyrazin-4-yl)oxy)-1,4-oxazepan-4-yl)prop-2-en-1-one] | 8.00 to 9.00 | < 5.00 |  |  |  |
